The record followed here is US10562912B2 (C&C Research Laboratories, priority 2013, dated 2020).

Common to all, as to format: cell-based
Experiment [1] deals with LNCaP. As to the kind of experiment: Cell growth inhibition assay, prostate cancer cell line LNCaP (medium with 10 ng/mL IL-6). The conditions noted are these: Homo sapiens, medium supplemented with 10 ng/mL of IL-6, 10,000 cells/well.
Experiment [2] deals with DU-145. The experiment in a line: Cell growth inhibition assay, prostate cancer cell line DU-145. The conditions noted are these: Homo sapiens, DU-145 prostate cancer cell line. Summed up: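 Luminescent CellTiter-Glo readout of viable cells after 72–96 h compound exposure (37° C., 5% CO2). Seeding: 3,000 cells/well for DU-145 and HCT116, 5,000 cells/well for SW626. Controls were medium without cells and 0.1% DMSO vehicle.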

Experiment [3] has as its system MDA-MB-231. The experiment in a line: Cell growth inhibition assay, breast cancer cell line MDA-MB-231. The settings on record: Homo sapiens; MDA-MB-231 breast cancer cell line, 5,000 cells/well.
Experiment [4] addresses T1, STAT3 (Homo sapiens, UniProt P40763).
T1 construct: plasmid pSTAT3-TA-luc), which contains a stably operating STAT3 promoter; endogenous in cells
The experiment in a line: STAT3 reporter gene assay (luciferase), LNCaP stable cell line (pSTAT3-TA-luc), IL-6 stimulation. An outline of the steps: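 LNCaP cells stably carrying pSTAT3-TA-luc, in RPMI1640 with 3% DCC-FBS, were treated with compound and then stimulated with 10 ng/mL IL-6 for 24–48 h at 37 °C. Luciferase activity was measured in lysates. A parallel plate measured viability by CellTiter-Glo, with stimulated 0.1% DMSO wells as the positive control.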

Experiment [5] relates to HEL92.1.7. As to the kind of experiment: Cell growth inhibition assay, blood cancer cell line HEL92.1.7. The conditions noted are these: Homo sapiens, HEL 92.1.7, HEL92.1.7 blood cancer cell line. As for the experimental part:
The inhibitory effects of the compounds of the present invention against the growth of cancer cells were evaluated as shown below. The cancer cell lines including stomach cancer cell line (AGS), breast cancer cell lines (MDA-MB-231, MDA-MB-468, and BT-549), prostate cancer cell lines (LNCaP and DU-145), colon cancer cell line (HCT116), ovarian cancer cell line (SW626), liver cancer cell line (Hep3B), kidney cancer cell line (ACHN), lung cancer cell line (NCI-H23) and blood cancer cell lines (HEL92.1.7 and U266) were cultured under the protocol provided by each supplier. A medium supplemented with 10 ng/mL of IL-6 was used for LNCaP, a prostate cancer cell line, when treated with a drug. Each type of cells to be used in experiments were sub-cultured in a 96-well plate by counting the exact number of cells using Tali™ Image-based Cytometer (Life Technologies). In a 96-well plate, AGS, HCT116, and DU-145 were employed with 3,000 cells/well; NCI-H23, SW626, Hep3B, ACHN, BT-549, MDA-MB-231, HEL92.1.7, and U266 were employed with 5,000 cells/well; and LNCaP and MDA-MB-468 were employed with 10,000 cells/well. The cells were treated with the compounds listed in Examples which were diluted in various concentrations. Upon completion of the compounds treatment, AGS, HCT116, SW626, DU145, NCI-H23, Hep3B, ACHN, BT-549, LNCaP, HEL92.1.7, and U266 cells were cultured at 37° C. under 5% CO2 for from 72 to 96 hours, and MDA-MB-231 and MDA-MB-468 cells were cultured at 37° C. in air for from 72 to 96 hours. Subsequently, the cells were observed under microscope and drug precipitation and particular findings were investigated and recorded. And then, the 96-well plate was placed at room temperature for 30 minutes, added with 20 μL/well of CellTiter-Glo solution (Cat No. G7573, Promega) and shaken for 10 minutes, followed by being subjected to the measurement using PHERAstar™ microplate reader (BMG LABTECH) according to the supplier's general luminometer protocol. Wells where only culture liquid added without cell plating were used as a negative control, whereas wells where culture liquid containing 0.1% DMSO instead of the compounds listed in Examples were used as a positive control.

A value given as a limit tells only on which side of the number the result lay.

T1 sequence (P40763 whole entry): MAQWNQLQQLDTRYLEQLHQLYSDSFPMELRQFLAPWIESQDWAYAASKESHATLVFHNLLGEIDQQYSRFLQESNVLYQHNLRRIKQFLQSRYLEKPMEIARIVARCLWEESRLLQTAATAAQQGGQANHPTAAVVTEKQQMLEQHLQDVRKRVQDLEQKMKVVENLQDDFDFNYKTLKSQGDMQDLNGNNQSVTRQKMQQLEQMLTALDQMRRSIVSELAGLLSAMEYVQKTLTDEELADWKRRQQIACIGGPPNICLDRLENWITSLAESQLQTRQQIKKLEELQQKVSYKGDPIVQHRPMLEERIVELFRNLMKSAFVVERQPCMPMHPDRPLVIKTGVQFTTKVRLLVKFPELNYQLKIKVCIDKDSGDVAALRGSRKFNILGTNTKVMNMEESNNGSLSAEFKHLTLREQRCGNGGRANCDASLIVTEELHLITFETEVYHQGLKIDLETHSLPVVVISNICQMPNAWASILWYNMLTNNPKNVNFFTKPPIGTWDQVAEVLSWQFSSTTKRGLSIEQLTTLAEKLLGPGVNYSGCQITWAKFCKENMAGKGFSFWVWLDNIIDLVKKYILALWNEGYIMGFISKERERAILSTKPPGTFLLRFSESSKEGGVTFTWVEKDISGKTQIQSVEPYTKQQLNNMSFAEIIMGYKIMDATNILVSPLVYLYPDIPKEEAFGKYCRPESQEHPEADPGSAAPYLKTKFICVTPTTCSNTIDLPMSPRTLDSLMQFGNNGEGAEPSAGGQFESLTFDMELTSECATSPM

On to `COc1cc2cc(C(=O)Nc3cc(Br)cc(C(C)(C)c4ccc(F)cc4)c3)[nH]c2cc1NS(C)(=O)=O` [Example 19, N-(3-bromo-5-(2-(4-fluorophenyl)propan-2-yl)phenyl)-5-methoxy-6-(methylsulfonamido)-1H-indole-2-carboxamide], for which the IC50 stood at 0.52 µM in experiment [1], 0.15 µM in experiment [2], 0.088 µM in experiment [3] and 0.12 µM in experiment [4].
As to `CC(C)(c1ccc(F)cc1)c1cc(Cl)cc(NC(=O)c2cc3ccc(NS(C)(=O)=O)cc3[nH]2)c1` [Example 21, N-(3-chloro-5-(2-(4-fluorophenyl)propan-2-yl)phenyl)-6-(methylsulfonamido)-1H-indole-2-carboxamide], the IC50 was determined as 0.9 µM in experiment [1], 0.19 µM in experiment [2], 0.054 µM in experiment [3] and 0.22 µM in experiment [4].
As for `CC(C)(c1ccc(F)cc1)c1cc(Br)cc(NC(=O)c2cc3cc(NS(C)(=O)=O)ccc3s2)c1` [Example 32, N-(3-bromo-5-(2-(4-fluorophenyl)propan-2-yl)phenyl)-5-(methylsulfonamido)benzo[b]thiophene-2-carboxamide], the IC50 in experiment [1] is 0.15 µM; in experiment [2] it was 0.044 µM; in experiment [3] it was 0.021 µM; in experiment [4], 0.034 µM.
For `COc1cc(OC(F)(F)F)cc(C(C)(C)c2cccc(NC(=O)c3cc4cc(NS(C)(=O)=O)ccc4s3)c2)c1` [Example 33, N-(3-(2-(3-methoxy-5-(trifluoromethoxy)phenyl)propan-2-yl)phenyl)-5-(methylsulfonamido)benzo[b]thiophene-2-carboxamide] the same measures were 0.15 µM, 0.037 µM, 0.003 µM and 0.035 µM.
For `CC(C)(c1cc(Br)cc(NC(=O)c2cc3cc(NS(C)(=O)=O)ccc3s2)c1)c1cccc(OCC(N)=O)c1` [Example 43, N-(3-(2-(3-(2-amino-2-oxoethoxy)phenyl)propan-2-yl)-5-bromophenyl)-5-(methylsulfonamido)benzo[b]thiophene-2-carboxamide] the same measures were 5.8 µM, 4.9 µM, 3.6 µM and 2.7 µM.
For `CCC(CC)(c1cc(NC(=O)c2cc3cc(NS(C)(=O)=O)ccc3s2)cc(OC)c1)c1cc(OC)cc(OC(F)(F)F)c1` [Example 54, N-(3-methoxy-5-(3-(3-methoxy-5-(trifluoromethoxy)phenyl)pentan-3-yl)phenyl)-5-(methylsulfonamido)benzo[b]thiophene-2-carboxamide] the same measures were 0.17 µM, 0.046 µM, 0.036 µM and 0.048 µM.
Take `CC(C)(c1ccccc1)c1cc(Cl)cc(NC(=O)c2cc3cc(NS(C)(=O)=O)ccc3s2)c1` [Example 64, N-(3-chloro-5-(2-phenylpropan-2-yl)phenyl)-5-(methylsulfonamido)benzo[b]thiophene-2-carboxamide]: the half-inhibitory concentration (IC50) in experiment [1] was found to be 0.1 µM; in experiment [2], 0.043 µM; in experiment [5], 0.11 µM; in experiment [4] it was 0.065 µM.
For `CC(C)Oc1cc(OC(F)(F)F)cc(C(C)(C)c2cc(Cl)cc(NC(=O)c3cc4c(N5CCOCC5)c(NS(C)(=O)=O)ccc4s3)c2)c1` [Example 66, N-(3-chloro-5-(2-(3-isopropoxy-5-(trifluoromethoxy)phenyl)propan-2-yl)phenyl)-5-(methylsulfonamido)-4-morpholinobenzo[b]thiophene-2-carboxamide] the same measures were greater than 1.1 µM, greater than 1.1 µM, greater than 1.1 µM and greater than 10 µM.
For `COc1cc(F)cc(C(C)(C)c2cc(Cl)cc(NC(=O)c3cc4cc(NS(C)(=O)=O)ccc4s3)c2)c1` [Example 67, N-(3-chloro-5-(2-(3-fluoro-5-methoxyphenyl)propan-2-yl)phenyl)-5-(methylsulfonamido)benzo[b]thiophene-2-carboxamide] the same measures were 0.037 µM, 0.042 µM, 0.11 µM and 0.067 µM.
For `CC(C)Oc1cc(OC(F)(F)F)cc(C(C)(C)c2cc(Cl)cc(NC(=O)c3nc4cc(NS(C)(=O)=O)ccc4s3)c2)c1` [Example 81, N-(3-chloro-5-(2-(3-isopropoxy-5-(trifluoromethoxy)phenyl)propan-2-yl)phenyl)-5-(methylsulfonamido)benzo[d]thiazole-2-carboxamide] the same measures were 0.15 µM, 0.11 µM, 0.34 µM and 0.055 µM.
Turning to `CC(C)(c1cc(Cl)cc(NC(=O)c2cc3cc(NS(C)(=O)=O)ccc3s2)c1)c1cc(OCC(F)F)cc(OC(F)(F)F)c1` [Example 83, N-(3-chloro-5-(2-(3-(2,2-difluoroethoxy)-5-(trifluoromethoxy)phenyl)propan-2-yl)phenyl)-5-(methylsulfonamido)benzo[b]thiophene-2-carboxamide], the 50% inhibitory concentration (IC50) in experiment [1] amounted to 0.025 µM; in experiment [2], 0.012 µM; in experiment [5], 0.1 µM; in experiment [4], 0.023 µM.
Turning to `CN1CCN(Cc2cccc(C(C)(C)c3cc(Br)cc(NC(=O)c4cc5cc(NS(C)(=O)=O)ccc5s4)c3)c2)CC1` [Example 115, N-(3-bromo-5-(2-(3-((4-methylpiperazin-1-yl)methyl)phenyl)propan-2-yl)phenyl)-5-(methylsulfonamido)benzo[b]thiophene-2-carboxamide], the IC50 is 5.6 µM in experiment [1], 1.7 µM in experiment [2], 1.5 µM in experiment [3] and 2.5 µM in experiment [4].
For `CC(C)(C)OC(=O)N1CCN(Cc2cccc(C(C)(C)c3cc(Br)cc(NC(=O)c4cc5ccc(NS(C)(=O)=O)cc5[nH]4)c3)c2)CC1` [Example 117, tert-butyl 4-(3-(2-(3-bromo-5-(6-(methylsulfonamido)-1H-indole-2-carboxamido)phenyl)propan-2-yl)benzyl)piperazine-1-carboxylate] the same measures were 2.6 µM, 1.2 µM, 2.2 µM and 0.23 µM.
For `CS(=O)(=O)Nc1ccc2sc(C(=O)Nc3cc(Br)cc(C4(c5ccc(F)cc5F)CC4)c3)cc2c1` [Example 426, N-(3-bromo-5-(1-(2,4-difluorophenyl)cyclopropyl)phenyl)-5-(methylsulfonamido)benzo[b]thiophene-2-carboxamide] the same measures were 0.3 µM, 0.13 µM, 0.074 µM and 0.082 µM.
Take `CC(C)(c1cccc(NC(=O)c2cc3ccc(N(CC(N)=O)S(C)(=O)=O)cc3[nH]2)c1)c1cc(O)cc(OC(F)(F)F)c1` [Example 436, 6-(N-(2-amino-2-oxoethyl)methylsulfonamido)-N-(3-(2-(3-hydroxy-5-(trifluoromethoxy)phenyl)propan-2-yl)phenyl)-1H-indole-2-carboxamide]: the IC50 in experiment [1] was greater than 10 µM; in experiment [3], 4.7 µM; in experiment [4] it was 5.2 µM.
For `CC(C)(c1cccc(NC(=O)c2cc3ccc(N(CC(N)=O)S(C)(=O)=O)cc3[nH]2)c1)c1cc(OCC(N)=O)cc(OC(F)(F)F)c1` [Example 437, N-(3-(2-(3-(2-amino-2-oxoethoxy)-5-(trifluoromethoxy)phenyl)propan-2-yl)phenyl)-6-(N-(2-amino-2-oxoethyl)methylsulfonamido)-1H-indole-2-carboxamide] the same measures were greater than 10 µM, greater than 10 µM and 6.3 µM.

By IC50 is commonly meant the concentration at which inhibition is half-maximal.
